Source: ChEMBL document CHEMBL1124341, “1',2'-seco-dideoxynucleosides as potential anti-HIV agents” (J Med Chem, 1989)

Key:
ATH-8 cell line [1] = experiment: Tested against ATH8 cells infected with HIV (2 x 10 e3 virus partials per cell) at concentrations ranging from 1 to 100 µM; No protection; format: functional, cell-based; conditions: Homo sapiens
ATH-8 cell line [2] = experiment: Tested against ATH8 cells infected with HIV (2 x 10 e3 virus partials per cell) at concentration of 20 µM; Completely protected; format: functional, cell-based; conditions: Homo sapiens

Row | SMILES | Activity (ATH-8 cell line [1]) | Activity (ATH-8 cell line [2])
1 | CCC(CO)OCn1cnc2c(N)ncnc21 (stereo not given) | No protection | 
2 | CCC(CO)OCn1ccc(N)nc1=O (stereo not given) | No protection | 
3 | CCC(CO)OCn1cnc2c(O)ncnc21 (stereo not given) | No protection | 
4 | CCC(CO)OCn1cnc2c(O)nc(N)nc21 (stereo not given) | No protection | 
5 | Nc1ncnc2c1ncn2[C@H]1CC[C@@H](CO)O1 |  | Completely protected
